Data published in US20200383969A1, “RIMEGEPANT FOR CGRP RELATED DISORDERS” (Biohaven Pharmaceutical Holding Company Ltd., priority 2018, published 2020).

Tests used:
[1] = Study 201 (BHV3000-201), open label long-term safety study, rimegepant 75 mg, interim analysis; type: in vivo, human
From the text: Clinical Trial-BHV3000-201: Open Label Safety Study in Acute Treatment of Migraine (ClinicalTrials.gov Identifier: NCT 03266588) • Study Type: Interventional (Clinical Trial) • Estimated Enrollment: 2000 participants • Intervention Model: Single Group Assignment • Masking: None (Open Label) • Primary Purpose: Treatment • Official Title: A Multicenter, Open Label Long-Term Safety Study of BHV3000 in the Acute Treatment of Migraine • Actual Study Start Date: Aug. 30, 2017 • Estimated Primary Completion Date: July 2019 • Estimated Study Completion Date: July 2019 • 1. To assess the safety and tolerability of rimegepant (BHV-3000) by measuring the frequency and severity of adverse events and discontinuations due to adverse events [Time Frame: 52 weeks] Number of subjects with treatment-emergent adverse events as assessed through laboratory tests, ECGs, physical exam findings (safety and tolerability) • 1. ALT or […] with total bilirubin>2×ULN [Time Frame: 52 weeks] elevated liver function tests • 2. hepatic related adverse events and hepatic related adverse events that lead to discontinuation [Time Frame: 52 weeks] adverse events related to liver Results from the clinical trial described in Example 10 are summarized as follows. […] Patients were allowed to treat migraine attacks of all severities (mild to severe) up to once daily for a full year. The initial results for hepatic safety and tolerability of rimegepant 75 mg in study participants is based upon review of both adverse events and regularly scheduled liver function tests. Interim hepatic data were reviewed by an external and independent panel of liver experts. […] In the aggregate, it was noted that compared to migraine trials with drugs other than rimegepant, there was a very low incidence of overall elevations of liver function test abnormalities in rimegepant treated patients (1.0% incidence of serum ALT or AST>3× ULN). Subjects will continue to participate in Study 201 with additional data analyses to be submitted in the NDA and required 120-day safety updates. In addition to the interim safety analysis, data from subjects was assessed to determine reductions in the number of headache days per month.

[2] = Study 301 (BHV3000-301), Phase 3, rimegepant 75 mg tablet vs placebo, acute treatment of migraine; type: in vivo, human
From the text: Clinical Trial—BHV3000-301: Phase 3: Double-Blind, Randomized, Placebo-Controlled, Safety and Efficacy Trial of BHV-3000 (Rimegepant) for the Acute Treatment of Migraine (ClinicalTrials.gov Identifier: NCT03235479). • Study Type: Interventional (Clinical Trial) • Actual Enrollment: 1490 participants • Allocation: Randomized • Intervention Model: Parallel Assignment • Intervention Model Description: Double-blind to Sponsor, Investigator and Subject Randomized Controlled Trial • Masking: Triple (Participant, Care Provider, Investigator) • Masking Description: Double-blind to Sponsor, Investigator and Subject • Primary Purpose: Treatment • Official Title: BHV3000-301: Phase 3: Double-Blind, Randomized, Placebo-Controlled, Safety and Efficacy Trial of BHV-3000 (Rimegepant) for the Acute Treatment of Migraine • 1. Pain freedom of rimegepant (75 mg tablet) compared with placebo in the acute treatment of migraine will be measured using the number of evaluable subjects that report no pain at 2 hours post-dose. [Time Frame: Two hours post dose] • Pain will be measured on a 4 point Likert scale (0=none, 1=mild, 2=moderate, 3=severe) • 2. Freedom from the most bothersome symptom (MBS) of rimegepant (75 mg tablet) compared with placebo will be measured using the number of evaluable subjects that report the absence of their MBS at 2 hours post-dose. [Time Frame: Two hours post dose] • The MBS (nausea, phonophobia or photophobia) will measured using a binary scale (0=absent, 1=present). • 1. […] [Time Frame: 2 hours-24 hours post-dose] • Sustained Pain Freedom as measured by a 4 point numeric rating scale (None, Mild, Moderate, Severe) • 2. The difference between rimegepant (75 mg tablet) compared to placebo by tabulating the absence of photophobia at 2 hours post-dose in the subset of subjects that reported the presence of photophobia at headache baseline. [Time Frame: 2 hours post-dose] • Photophobia • 3. To evaluate rimegepant (75 mg tablet) compared to placebo by tabulating the number of subjects that report the absence of phonophobia at 2 hours post-dose in the subset of subjects that reported the presence of phonophobia at headache baseline. [Time Frame: 2 hours post-dose] • Phonophobia • 4. To measure the difference between rimegepant (75 mg tablet) compared to placebo on Pain Relief, at 2 hours post-dose, for those that report a pain level of moderate or severe at baseline and then report a pain level of none or mild. [Time Frame: 2 hours post-dose] • Pain Relief as measured by a 4 point numeric rating scale (None, Mild, Moderate, Severe) • 5. Freedom from Nausea by tabulating the number of subjects that report the absence of nausea at 2 hours post-dose in the subset of subjects that reported the presence of nausea at headache baseline. [Time Frame: 2 hours post-dose] • Freedom from Nausea • 6. The difference between rimegepant (75 mg tablet) compared to placebo on the probability of requiring rescue medication using the number of subjects that take rescue medication within […] administration of study medication (BHV3000 or placebo). [Time Frame: up to 24 hours post-dose] • Requiring Rescue Medication • 7. […] [Time Frame: 2 hours-24 hours post-dose] • Sustained Pain Freedom • 8. […] [Time Frame: 2 hours-24 hours post-dose] • Sustained Pain Relief as measured by a 4 point numeric rating scale (None, Mild, Moderate, Severe) • 9. […] [Time Frame: 2 hours-48 hours post-dose] • Sustained Pain Relief as measured by a 4 point numeric rating scale (None, Mild, Moderate, Severe) • 10. To measure the difference between rimegepant (75 mg tablet) relative to placebo on the proportion of subjects able to function normally, at 2 hours, using the number of subjects that self-report as “normal” on the functional disability scale. [Time Frame: 2 hours post-dose] • Functional Disability Score • 11. […]

[3] = both subjects not dosed before onset

## N[C@@H]1c2cccnc2[C@H](OC(=O)N2CCC(n3c(=O)[nH]c4ncccc43)CC2)CC[C@H]1c1cccc(F)c1F [Rimegepant, [(5S,6S,9R)-5-amino-6-(2,3-difluorophenyl)-6,7,8,9-tetrahydro-5H-cyclohepta[b]pyridin-9-yl] 4-(2-oxo-3H-imidazo[4,5-b]pyridin-1-yl)piperidine-1-carboxylate]
[1]; Study 201, Overall, n 1731, treatment vs observation phase
  >=30.0% decrease in migraines (headache days) per month, percent of subjects: 30.2%
[1]; Study 201, continued in subsequent months
  Onset of reductions in the mean number of headache days per month: as early as the first month
[1]; Study 201 interim
  Hy's Law cases: no Hy's Law cases
  Incidence of serum ALT or AST>3× ULN: 1.0%
[1]; Study 201 interim analysis, 75 mg up to once daily
  Safety and tolerability of long-term dosing: consistent with the profile observed in phase 1-3 studies to date
[1]; Study 201 interim, including near-daily dosing (≥15 doses/month)
  Liver safety signal: no liver safety signal detected
[1]; Study 201 interim, independent panel of liver experts
  Liver cases assessed as probably related to study drug: no liver cases
[2]
  SAEs related to the study drug: No SAE
[2]; 75 mg tablet
  AE dizziness, incidence: 0.7%
  AE dizziness, n/N: 4/546
  AE nausea, incidence: 0.9%
  AE nausea, n/N: 5/546
  Bilirubin elevations >2 times ULN: No bilirubin elevations
  Serum ALT or AST > ULN, n/N: 11/546
  Serum ALT or AST > ULN, subjects: 2.0%
  Transaminase level >3 times ULN, number of subjects: One
  Transaminase level >3 times ULN, subjects: 0.2%
  Transaminase level >5 times ULN: no subject
[2]; P<0.0001
  Normal function at 2 hours (functional disability) vs placebo: greater proportion
[2]; [3]
  Serious AEs, number of subjects: 2
  Serious AEs, subjects: 0.4%
[2]; single dose, no rescue medication, P=0.0003
  Sustained pain relief from 2 through 48 hours postdose vs placebo: superiority versus placebo
[2]; single dose, no rescue medication, P=0.013
  Sustained pain freedom from 2 through 48 hours postdose vs placebo: superiority versus placebo
